These results are taken from ChEMBL document CHEMBL5465560, “Selectivity Literature for EUbOPEN Chemogenomic Library” (2024).

In test [1] the target is LIM domain kinase 2 (Homo sapiens) (UniProt P53671). Description: Selectivity interaction (Ambit KINOMEscan and KiNATiv profiling in Jurkat cells) EUB0000090b LIMK2. The class given is cell-based. The note with it: at 1 µM.
Test [2] deals with Serine/threonine-protein kinase RIO2 (Homo sapiens) (UniProt Q9BVS4). Kind of test: Selectivity interaction (KinomeScan (DiscoverX)) EUB0001079a RIOK2. The settings on record: at 1 µM.
Sequence of Serine/threonine-protein kinase RIO2 (Homo sapiens) (Q9BVS4 whole entry, looked up): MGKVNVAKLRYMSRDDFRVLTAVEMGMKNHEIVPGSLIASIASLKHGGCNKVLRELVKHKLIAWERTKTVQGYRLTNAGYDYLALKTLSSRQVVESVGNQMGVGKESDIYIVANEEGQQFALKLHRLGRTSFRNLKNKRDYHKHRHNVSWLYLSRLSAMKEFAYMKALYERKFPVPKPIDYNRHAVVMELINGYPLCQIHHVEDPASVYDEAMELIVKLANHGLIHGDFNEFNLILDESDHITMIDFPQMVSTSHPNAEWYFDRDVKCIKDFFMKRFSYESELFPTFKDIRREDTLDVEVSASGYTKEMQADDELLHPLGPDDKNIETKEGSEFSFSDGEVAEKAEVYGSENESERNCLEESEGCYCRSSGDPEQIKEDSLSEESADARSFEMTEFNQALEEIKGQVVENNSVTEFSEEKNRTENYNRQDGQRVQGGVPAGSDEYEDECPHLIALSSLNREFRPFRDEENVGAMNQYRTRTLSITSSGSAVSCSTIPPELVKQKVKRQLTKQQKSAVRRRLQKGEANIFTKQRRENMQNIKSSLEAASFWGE
For test [3], the target named is Calcium/calmodulin-dependent protein kinase type 1B (Homo sapiens) (UniProt Q6P2M8). Kind of test: Selectivity interaction (KinomeScan (DiscoverX)) EUB0001079a PNCK. The settings on record: at 1 µM.
Sequence of Calcium/calmodulin-dependent protein kinase type 1B (Homo sapiens) (Q6P2M8 whole entry): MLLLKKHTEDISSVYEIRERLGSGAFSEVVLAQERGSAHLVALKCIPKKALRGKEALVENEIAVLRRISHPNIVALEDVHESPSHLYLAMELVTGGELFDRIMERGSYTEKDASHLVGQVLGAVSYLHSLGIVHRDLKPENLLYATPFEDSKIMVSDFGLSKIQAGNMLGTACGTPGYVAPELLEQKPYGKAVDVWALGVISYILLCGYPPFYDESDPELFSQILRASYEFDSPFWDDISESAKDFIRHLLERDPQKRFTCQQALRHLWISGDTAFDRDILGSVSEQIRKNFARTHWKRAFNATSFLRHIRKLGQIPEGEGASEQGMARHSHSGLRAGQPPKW
In test [4] the target is T1, Tyrosine-protein kinase receptor TYRO3 (Homo sapiens) (UniProt Q06418).
T1 sequence (whole entry): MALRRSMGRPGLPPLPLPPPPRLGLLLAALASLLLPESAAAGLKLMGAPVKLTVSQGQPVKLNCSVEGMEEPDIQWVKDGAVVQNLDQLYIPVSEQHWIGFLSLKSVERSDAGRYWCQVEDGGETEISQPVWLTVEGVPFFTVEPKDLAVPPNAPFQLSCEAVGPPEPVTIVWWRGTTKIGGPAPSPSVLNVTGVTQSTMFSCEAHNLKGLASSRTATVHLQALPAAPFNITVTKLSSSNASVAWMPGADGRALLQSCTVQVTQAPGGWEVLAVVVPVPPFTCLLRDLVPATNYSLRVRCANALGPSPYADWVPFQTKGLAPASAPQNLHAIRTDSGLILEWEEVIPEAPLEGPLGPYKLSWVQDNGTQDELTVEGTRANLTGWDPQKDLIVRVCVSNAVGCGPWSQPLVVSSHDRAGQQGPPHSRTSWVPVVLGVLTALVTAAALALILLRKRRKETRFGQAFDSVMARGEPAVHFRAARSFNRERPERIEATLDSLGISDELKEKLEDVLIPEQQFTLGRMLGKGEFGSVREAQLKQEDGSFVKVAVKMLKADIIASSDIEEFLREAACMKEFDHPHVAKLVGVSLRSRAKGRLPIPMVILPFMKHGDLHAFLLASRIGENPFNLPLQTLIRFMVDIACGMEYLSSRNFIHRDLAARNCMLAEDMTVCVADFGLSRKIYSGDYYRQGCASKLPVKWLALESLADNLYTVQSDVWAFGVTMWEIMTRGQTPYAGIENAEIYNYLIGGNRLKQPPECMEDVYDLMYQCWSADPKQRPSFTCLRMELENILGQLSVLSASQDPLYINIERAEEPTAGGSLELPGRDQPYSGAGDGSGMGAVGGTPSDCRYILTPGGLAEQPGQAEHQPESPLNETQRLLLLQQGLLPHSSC
Description: Selectivity interaction (KinomeScan (DiscoverX)) EUB0000666a TYRO3. The note with it: at 10 µM.

Test [5] concerns the target T2, Aurora kinase A (Homo sapiens) (UniProt O14965).
T2 sequence (whole entry): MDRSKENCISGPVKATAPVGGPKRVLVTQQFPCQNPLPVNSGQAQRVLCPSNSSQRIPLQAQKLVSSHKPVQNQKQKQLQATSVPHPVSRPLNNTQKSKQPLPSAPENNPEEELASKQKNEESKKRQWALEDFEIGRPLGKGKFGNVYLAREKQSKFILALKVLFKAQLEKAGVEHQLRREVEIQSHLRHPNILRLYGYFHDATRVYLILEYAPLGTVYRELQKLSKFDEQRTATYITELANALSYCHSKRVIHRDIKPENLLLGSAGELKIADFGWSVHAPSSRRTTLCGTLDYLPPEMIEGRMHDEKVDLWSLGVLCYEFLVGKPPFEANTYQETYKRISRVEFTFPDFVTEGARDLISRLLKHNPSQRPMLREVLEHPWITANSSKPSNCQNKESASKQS
Kind of test: Selectivity interaction (ActivX KiNativ screen (kinase selectivity in THP-1 cell lysates)) EUB0000639a STK6. Format: subcellular. The note with it: lysate, at 0.04 µM.

In test [6] the target is Calcium/calmodulin-dependent protein kinase kinase 2 (Homo sapiens) (UniProt Q96RR4). Description: Selectivity interaction (Kinase panel (Invitrogen)) EUB0000639a CAMKK2. The note with it: at 200 nM.
Sequence of Calcium/calmodulin-dependent protein kinase kinase 2 (Homo sapiens) (Q96RR4 2-588 limits assumed): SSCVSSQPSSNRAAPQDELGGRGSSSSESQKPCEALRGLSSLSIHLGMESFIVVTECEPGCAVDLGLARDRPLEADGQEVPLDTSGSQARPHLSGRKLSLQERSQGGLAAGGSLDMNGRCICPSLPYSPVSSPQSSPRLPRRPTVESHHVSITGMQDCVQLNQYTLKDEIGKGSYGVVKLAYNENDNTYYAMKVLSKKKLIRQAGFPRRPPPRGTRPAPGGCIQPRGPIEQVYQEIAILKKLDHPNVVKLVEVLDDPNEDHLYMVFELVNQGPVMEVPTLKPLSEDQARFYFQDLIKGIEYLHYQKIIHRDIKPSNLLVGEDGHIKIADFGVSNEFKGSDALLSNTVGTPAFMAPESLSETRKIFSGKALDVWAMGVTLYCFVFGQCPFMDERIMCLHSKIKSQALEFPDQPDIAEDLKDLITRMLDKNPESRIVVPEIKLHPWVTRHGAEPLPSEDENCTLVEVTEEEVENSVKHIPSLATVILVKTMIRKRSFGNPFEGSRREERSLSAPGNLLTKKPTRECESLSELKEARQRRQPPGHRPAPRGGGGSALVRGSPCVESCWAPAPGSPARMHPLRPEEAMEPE
Test [7] has as its target T3, Serine/threonine-protein kinase Nek2 (Homo sapiens) (UniProt P51955).
T3 sequence (whole entry): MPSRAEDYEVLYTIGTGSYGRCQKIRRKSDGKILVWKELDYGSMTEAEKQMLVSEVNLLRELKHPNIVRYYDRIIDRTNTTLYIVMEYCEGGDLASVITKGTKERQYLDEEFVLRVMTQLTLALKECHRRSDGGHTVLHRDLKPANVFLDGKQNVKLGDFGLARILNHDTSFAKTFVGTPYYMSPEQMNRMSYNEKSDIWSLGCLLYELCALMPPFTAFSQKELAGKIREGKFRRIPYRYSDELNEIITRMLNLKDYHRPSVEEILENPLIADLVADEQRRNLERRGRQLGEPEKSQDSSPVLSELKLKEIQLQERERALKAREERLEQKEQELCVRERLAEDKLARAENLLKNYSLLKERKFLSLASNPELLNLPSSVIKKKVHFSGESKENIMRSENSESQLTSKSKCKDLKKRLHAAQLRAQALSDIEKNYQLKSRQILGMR
Description: Selectivity interaction (KinomeScan (DiscoverX)) EUB0001619a NEK2. The note with it: at 1 µM.

The target in test [8] is Ribosomal protein S6 kinase alpha-1 (Homo sapiens, UniProt Q15418). Kind of test: Selectivity interaction (Kinase panel (literature)) EUB0001199aCl RPS6KA1. The settings on record: at 1 µM.
Sequence of Ribosomal protein S6 kinase alpha-1 (Q15418 whole entry): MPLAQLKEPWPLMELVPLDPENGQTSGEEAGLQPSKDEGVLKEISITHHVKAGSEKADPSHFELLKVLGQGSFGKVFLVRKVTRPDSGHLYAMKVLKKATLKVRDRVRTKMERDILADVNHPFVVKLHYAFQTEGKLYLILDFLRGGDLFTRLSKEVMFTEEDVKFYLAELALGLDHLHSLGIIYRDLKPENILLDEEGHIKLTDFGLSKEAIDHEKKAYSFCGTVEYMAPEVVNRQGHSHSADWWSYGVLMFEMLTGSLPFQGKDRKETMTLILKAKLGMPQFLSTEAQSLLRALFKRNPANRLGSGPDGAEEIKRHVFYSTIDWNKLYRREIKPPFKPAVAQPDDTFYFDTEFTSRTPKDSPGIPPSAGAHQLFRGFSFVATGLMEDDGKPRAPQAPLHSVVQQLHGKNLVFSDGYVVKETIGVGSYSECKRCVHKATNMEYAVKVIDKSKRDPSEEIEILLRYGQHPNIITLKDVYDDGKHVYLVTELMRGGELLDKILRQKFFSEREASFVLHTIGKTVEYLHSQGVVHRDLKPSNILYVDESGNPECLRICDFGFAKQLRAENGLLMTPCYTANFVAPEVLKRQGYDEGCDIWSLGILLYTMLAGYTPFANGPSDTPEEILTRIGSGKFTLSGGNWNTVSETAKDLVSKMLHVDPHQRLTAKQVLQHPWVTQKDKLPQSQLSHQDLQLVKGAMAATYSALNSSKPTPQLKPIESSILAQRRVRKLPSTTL
The target of test [9] is T4, Interleukin-1 receptor-associated kinase 4 (Homo sapiens) (UniProt Q9NWZ3).
T4 sequence (whole entry): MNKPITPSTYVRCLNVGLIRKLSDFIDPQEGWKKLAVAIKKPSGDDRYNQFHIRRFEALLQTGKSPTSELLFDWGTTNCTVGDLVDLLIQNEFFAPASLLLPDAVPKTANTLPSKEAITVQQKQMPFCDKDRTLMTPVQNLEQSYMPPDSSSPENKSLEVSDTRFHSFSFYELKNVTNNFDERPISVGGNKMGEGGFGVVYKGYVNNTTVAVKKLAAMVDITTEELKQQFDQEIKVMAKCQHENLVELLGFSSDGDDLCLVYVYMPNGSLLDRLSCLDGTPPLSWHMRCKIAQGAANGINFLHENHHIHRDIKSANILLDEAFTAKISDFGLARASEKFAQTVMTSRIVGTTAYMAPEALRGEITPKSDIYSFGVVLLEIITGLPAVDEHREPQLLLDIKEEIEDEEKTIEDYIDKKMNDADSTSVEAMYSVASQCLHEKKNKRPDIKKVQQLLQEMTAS
Description: Selectivity interaction (Kinase panel (KiNativ target engagement assay in Jurkat cells)) EUB0001635a IRAK4. The class given is cell-based. The settings on record: Selectivity number of off-targets 0.0, Selectivity number of targets 233.0, Source Knowledge https://www.sciencedirect.com/science/article/pii/S2451945619300674?via%3Dihub, at 1 µM.

The target of test [10] is MAP/microtubule affinity-regulating kinase 3 (Homo sapiens) (UniProt P27448). Description: Selectivity interaction (KinomeScan (DiscoverX)) EUB0000618a MARK3. The settings on record: at 10 µM.
Sequence of MAP/microtubule affinity-regulating kinase 3 (Homo sapiens) (P27448 whole entry, looked up): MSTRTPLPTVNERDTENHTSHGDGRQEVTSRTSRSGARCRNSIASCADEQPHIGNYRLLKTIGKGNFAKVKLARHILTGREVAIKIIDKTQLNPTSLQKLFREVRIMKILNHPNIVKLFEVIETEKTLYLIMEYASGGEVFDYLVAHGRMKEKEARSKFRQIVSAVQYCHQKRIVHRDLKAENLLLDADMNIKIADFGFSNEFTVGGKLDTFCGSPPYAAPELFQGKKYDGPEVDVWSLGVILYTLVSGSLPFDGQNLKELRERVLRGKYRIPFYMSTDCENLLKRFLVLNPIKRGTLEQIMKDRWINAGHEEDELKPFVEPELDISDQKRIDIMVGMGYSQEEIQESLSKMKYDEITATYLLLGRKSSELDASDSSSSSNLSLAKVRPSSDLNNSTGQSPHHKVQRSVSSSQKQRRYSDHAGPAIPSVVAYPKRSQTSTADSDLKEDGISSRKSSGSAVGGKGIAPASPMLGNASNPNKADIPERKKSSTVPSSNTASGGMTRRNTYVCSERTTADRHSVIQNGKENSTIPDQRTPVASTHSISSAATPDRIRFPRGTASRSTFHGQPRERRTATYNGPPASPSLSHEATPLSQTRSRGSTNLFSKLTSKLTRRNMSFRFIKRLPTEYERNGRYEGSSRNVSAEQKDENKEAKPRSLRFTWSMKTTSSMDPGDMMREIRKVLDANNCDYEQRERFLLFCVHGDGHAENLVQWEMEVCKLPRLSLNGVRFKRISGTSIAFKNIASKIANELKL
The target of test [11] is Casein kinase II subunit alpha (Homo sapiens, UniProt P68400). Kind of test: Selectivity interaction (KinomeScan (DiscoverX)) EUB0000618a CSNK2A1. The note with it: at 10 µM.
Sequence of Casein kinase II subunit alpha (P68400 whole entry, looked up): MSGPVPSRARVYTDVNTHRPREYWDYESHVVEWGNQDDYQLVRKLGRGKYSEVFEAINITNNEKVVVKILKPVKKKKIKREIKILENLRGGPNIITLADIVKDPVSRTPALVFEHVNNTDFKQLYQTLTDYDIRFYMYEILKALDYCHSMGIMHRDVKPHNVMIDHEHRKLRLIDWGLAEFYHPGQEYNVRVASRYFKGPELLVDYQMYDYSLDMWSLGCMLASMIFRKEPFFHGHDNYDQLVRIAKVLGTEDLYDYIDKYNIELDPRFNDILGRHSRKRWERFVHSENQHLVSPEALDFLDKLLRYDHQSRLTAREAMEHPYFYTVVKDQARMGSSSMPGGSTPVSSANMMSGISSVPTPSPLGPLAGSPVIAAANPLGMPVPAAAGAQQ

Sequence of LIM domain kinase 2 (Homo sapiens) (P53671 whole entry, looked up, the tested form may be a part): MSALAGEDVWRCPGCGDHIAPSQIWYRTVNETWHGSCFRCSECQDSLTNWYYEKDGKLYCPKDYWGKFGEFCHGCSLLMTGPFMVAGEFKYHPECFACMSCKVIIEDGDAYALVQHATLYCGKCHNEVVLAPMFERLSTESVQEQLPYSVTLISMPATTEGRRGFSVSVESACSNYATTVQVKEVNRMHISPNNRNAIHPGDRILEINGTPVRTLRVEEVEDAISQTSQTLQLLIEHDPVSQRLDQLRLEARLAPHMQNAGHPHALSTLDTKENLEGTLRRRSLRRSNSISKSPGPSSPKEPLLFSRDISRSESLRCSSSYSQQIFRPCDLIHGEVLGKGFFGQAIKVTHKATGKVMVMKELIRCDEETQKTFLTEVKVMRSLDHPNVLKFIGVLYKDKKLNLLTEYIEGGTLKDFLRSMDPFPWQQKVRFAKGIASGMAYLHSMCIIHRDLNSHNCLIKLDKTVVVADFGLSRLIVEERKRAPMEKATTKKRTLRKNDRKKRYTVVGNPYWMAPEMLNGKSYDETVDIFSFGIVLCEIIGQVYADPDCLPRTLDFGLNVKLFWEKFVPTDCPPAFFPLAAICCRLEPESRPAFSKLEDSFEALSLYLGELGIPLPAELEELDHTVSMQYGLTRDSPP

Take `CN(C)C/C=C/C(=O)Nc1ccc(C(=O)N2CCCC(Nc3ncc(Cl)c(-c4c[nH]c5ccccc45)n3)C2)cc1` (stereo unspecified): the % of control in test [1] worked out at 95%.

With `Nc1cnc(N2CCc3cc(S(=O)(=O)Nc4c(F)cc(Cl)cc4F)cc(N4CCCC4=O)c32)nc1` [TP-020n], the values for the % of control in test [2] and in test [3] were 89% and 67%, respectively. In [4], `O=C(NOC[C@H](O)CO)c1ccc(F)c(F)c1Nc1ccc(I)cc1F` returned a % of control of 80%.

As to `CC[C@@H]1[C@H](F)C(=O)N[C@@H]1COc1nccc2cc(C(N)=O)c(OC)cc12` [ZIMLOVISERTIB], the % of inhibition in test [5] was -1.3%; in test [6] it was -1.97%.

The molecule `N#Cc1cccc(-c2c[nH]c3ncnc(N4CCOCC4)c23)c1` displayed a % of control in [7] of 100%. Take `CN1Cc2nccc(-c3cn(C)nc3-c3ccc(F)cc3)c2C1=O`: the % of inhibition in [8] was determined as 18%. With `C=CC(=O)Nc1ccc(C(=O)Nc2[nH]nc3c2CN(C(=O)N[C@H](CN(C)C)c2ccccc2)C3(C)C)cc1`, in test [9], the % of engagement amounted to 0.4%. `O[C@H]1CC[C@H](Nc2ncc3nc(Nc4c(F)cc(F)cc4F)n([C@H]4CCOC4)c3n2)CC1`: the % of control was found to be 97% in test [10] and 100% in test [11].
